Test results taken from patent US6747061B2, “N-substituted dithiocarbamates for the treatment of biological disorders” (AtheroGenics, Inc., priority 2000, dated 2004).
Read-outs that look alike come from different tables or passages of the source.

What was measured:
[1] = test system: DLD-1 colorectal carcinoma cells; test: Anti-proliferative effect on DLD-1 cells (CellTiter96); format: cell-based; details: Homo sapiens, read-out: proliferation, percent of control; for activity at 1 µM: NDE 1 μM; for activity at 10 µM: NDE 10 μM; for activity at 100 µM: NDE 100 μM
Protocol: All primary cells and cell lines were commercially available. The transformed cell lines were grown in Dulbecco's Modified Eagle Media supplemented with 2 mM L-glutamine, 50 I.U. penicillin, 50 μg/ml streptomycin, nonessential amino acids and 10% heat-inactivated fetal bovine serum. HASM, HAEC and NHBE cells were cultured exactly as described by the commercial provider (Clonetics, San Diego, Calif.). All cell lines were grown at 37° C. in 5% CO2, with the media being changed every 48 hours.
For the experimental assays, cells were plated in 96-well plates and grown until ˜35% confluency was achieved. For the transformed cell lines, cells were plated at low density and grown for 72 hours prior to being stimulated, whereas the non-transformed cells were plated at a higher density and grown for 24 hours prior to being stimulated.
Cells were treated with dithiocarbamate (0.1-100 μM)±5FU (0.01-10 μM) and retreated after 48 hours when media was changed. Cell growth was assessed using the CellTiter96® assay system from Promega (Madison, Wis.). Each experimental condition was performed in triplicate or quadruplicate, with the number of experiments for each cell line being three.
Statistical significance was assessed using an ANOVA with the appropriate post-hoc analysis as well as Students t-tests. *=p<0.05 when compared to control-treated (DMSO) cells. #=p<0.05 when compared to 5FU-treated cells.

15-LOX-2 = test: 15-Lipoxygenase Form-2 assay: immunoblot of TNF-α and IL-4 co-induced 15-LOX-2 expression in NHBE cells; format: cell-based; details: Homo sapiens, TNF-α 10 ng/ml + IL-4 20 ng/ml, 16-20 hours
Protocol: The 15-Lipoxygenase Form-2 (15-LOX-2) Assay is an immunoblot assay to measure tumor necrosis factor alpha (TNF-α) and interleukin-4 (IL-4) co-induced expression of 15-LOX-2 in Normal Human Epithelial Cells.
Normal human bronchial epithelial cells (NHBE) were purchased from Clonetics. They were cultured in BEGM (Clonetics) media without retinoic acid. In a typical experiment, the cells were seeded in 24-well plates. Media was changed to BEGM without retinoic acid (RA) and hydrocortisone (HC) 24 hour before dosing. Cells were then exposed to TNF-α (10 ng/ml) and IL-4 (20 ng/ml) purchased from Boehringer Mannheim in the absence or presence of compounds in fresh BEGM without RA and HC for 16-20 hours at 37° C. To establish a dose curve for each compound, three concentrations in 2 fold increments were used. All compounds were dissolved in DMSO and the final concentration of DMSO was 0.2%.
Cells were washed with cold 1×PBS three times and then lysed by 100 μl of Tris-Glycine SDS sample buffer (NOVEX). Lysates were fractionated by 4-20% gradient SDS-PAGE (NOVEX), transferred onto nitrocellulose filters (MSI) and incubated with the filters in blocking buffer (5% Blotto in 1×Tris buffered saline (TBS)+0.05% Tween 20) for 1 hour with gentle shaking. […]

IC50 (15-LOX-2): 4.5 µM
Compound: COC(=O)CCCSC(=S)NCC1CCCO1 (stereo not shown) [NDE, 4-(tetrahydrofuran-2-ylmethylthiocarbamoylsulfanyl)-butyric acid methyl ester]
activity at 1 µM ([1]; 24 HOURS): 116 ± 3.72%
activity at 1 µM ([1]; 48 HOURS): 107 ± 7.55%
activity at 1 µM ([1]; 72 HOURS): 133 ± 10.3%
activity at 10 µM ([1]; 24 HOURS): 97.1 ± 1.79%
activity at 10 µM ([1]; 48 HOURS): 104 ± 13.3%
activity at 10 µM ([1]; 72 HOURS): 142 ± 14.9%
activity at 100 µM ([1]; 24 HOURS): 53.8 ± 5.28%
activity at 100 µM ([1]; 48 HOURS): 39.8 ± 6.27%
activity at 100 µM ([1]; 72 HOURS): 0.27 ± 0.27%
